Source: ChEMBL document CHEMBL3991601, “The target landscape of clinical kinase drugs” (Science, 2017)
Calls of active or inactive are those of the source.

The compounds below were run against T1, ADP/ATP translocase 2 (Homo sapiens, UniProt P05141).
T1 sequence (P05141 whole entry): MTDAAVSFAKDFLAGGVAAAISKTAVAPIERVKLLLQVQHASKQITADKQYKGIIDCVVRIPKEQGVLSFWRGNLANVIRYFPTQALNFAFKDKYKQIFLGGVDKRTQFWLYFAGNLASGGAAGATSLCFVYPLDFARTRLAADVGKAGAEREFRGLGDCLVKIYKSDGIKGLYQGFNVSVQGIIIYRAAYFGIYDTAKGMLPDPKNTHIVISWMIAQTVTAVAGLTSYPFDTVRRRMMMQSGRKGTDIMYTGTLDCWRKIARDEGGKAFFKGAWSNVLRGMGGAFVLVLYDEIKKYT
Note: in the data inactive means no Kd found up to 30 µM.

| SMILES | Kd |
| --- | --- |
| CN1CCN(c2ccc3nc(-c4c(N)c5c(F)cccc5[nH]c4=O)[nH]c3c2)CC1 [DOVITINIB] | > 30 µM (inactive) |
| Cc1cc(Nc2cc(N3CCN(C)CC3)nc(/C=C/c3ccccc3)n2)n[nH]1 [ENMD-2076] | > 30 µM (inactive) |
| COCCNCc1ccc(-c2cc3nccc(Oc4ccc(NC(=S)NC(=O)Cc5ccc(F)cc5)cc4F)c3s2)nc1 [GLESATINIB] | > 30 µM (inactive) |
| CCn1c(-c2nonc2N)nc2c(C#CC(C)(C)O)ncc(OC[C@H]3CCCNC3)c21 [GSK-690693] | > 30 µM (inactive) |
| COc1cc2nccc(Oc3ccc(NC(=O)NC4CC4)c(Cl)c3)c2cc1C(N)=O [LENVATINIB] | > 30 µM (inactive) |

These compounds were tested against Bone morphogenetic protein receptor type-1A (Homo sapiens, UniProt P36894).
Chain of Bone morphogenetic protein receptor type-1A (P36894 whole entry): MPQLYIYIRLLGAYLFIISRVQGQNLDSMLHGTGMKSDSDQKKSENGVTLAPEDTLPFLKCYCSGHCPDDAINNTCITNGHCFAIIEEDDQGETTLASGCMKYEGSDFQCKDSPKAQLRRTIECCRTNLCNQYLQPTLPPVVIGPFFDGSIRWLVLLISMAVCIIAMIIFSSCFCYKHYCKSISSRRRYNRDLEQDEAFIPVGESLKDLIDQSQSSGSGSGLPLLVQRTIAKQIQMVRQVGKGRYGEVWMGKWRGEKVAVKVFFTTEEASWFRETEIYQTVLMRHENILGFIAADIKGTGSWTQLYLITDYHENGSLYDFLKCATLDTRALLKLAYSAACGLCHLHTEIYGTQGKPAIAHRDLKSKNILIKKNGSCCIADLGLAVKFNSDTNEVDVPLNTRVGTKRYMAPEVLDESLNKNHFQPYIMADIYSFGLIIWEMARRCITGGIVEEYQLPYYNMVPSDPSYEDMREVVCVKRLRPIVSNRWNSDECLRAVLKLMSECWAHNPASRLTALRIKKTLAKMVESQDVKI

| SMILES | Kd |
| --- | --- |
| Cc1cc(Nc2cc(N3CCN(C)CC3)nc(/C=C/c3ccccc3)n2)n[nH]1 [ENMD-2076] | > 30 µM (inactive) |
| COCCNCc1ccc(-c2cc3nccc(Oc4ccc(NC(=S)NC(=O)Cc5ccc(F)cc5)cc4F)c3s2)nc1 [GLESATINIB] | > 30 µM (inactive) |

The compounds below were run against T2, Probable ATP-dependent RNA helicase DDX6 (Homo sapiens, UniProt P26196).
T2 sequence (P26196 whole entry): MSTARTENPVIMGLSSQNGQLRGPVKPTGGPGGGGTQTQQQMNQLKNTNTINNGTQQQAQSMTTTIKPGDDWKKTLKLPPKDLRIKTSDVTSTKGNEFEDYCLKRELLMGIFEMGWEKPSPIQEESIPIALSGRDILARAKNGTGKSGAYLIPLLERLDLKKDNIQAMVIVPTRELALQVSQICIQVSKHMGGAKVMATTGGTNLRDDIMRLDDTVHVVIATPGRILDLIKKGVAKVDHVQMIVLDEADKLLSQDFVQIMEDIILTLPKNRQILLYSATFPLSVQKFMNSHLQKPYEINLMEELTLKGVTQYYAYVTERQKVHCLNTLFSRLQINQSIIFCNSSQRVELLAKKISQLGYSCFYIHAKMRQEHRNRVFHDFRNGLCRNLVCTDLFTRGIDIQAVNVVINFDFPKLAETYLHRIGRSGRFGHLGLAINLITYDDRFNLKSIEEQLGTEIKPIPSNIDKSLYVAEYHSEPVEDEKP

| SMILES | Kd |
| --- | --- |
| CN1CCN(c2ccc3nc(-c4c(N)c5c(F)cccc5[nH]c4=O)[nH]c3c2)CC1 [DOVITINIB] | > 30 µM (inactive) |
| Cc1cc(Nc2cc(N3CCN(C)CC3)nc(/C=C/c3ccccc3)n2)n[nH]1 [ENMD-2076] | > 30 µM (inactive) |
| COCCNCc1ccc(-c2cc3nccc(Oc4ccc(NC(=S)NC(=O)Cc5ccc(F)cc5)cc4F)c3s2)nc1 [GLESATINIB] | > 30 µM (inactive) |
| CCn1c(-c2nonc2N)nc2c(C#CC(C)(C)O)ncc(OC[C@H]3CCCNC3)c21 [GSK-690693] | > 30 µM (inactive) |
| COc1cc2nccc(Oc3ccc(NC(=O)NC4CC4)c(Cl)c3)c2cc1C(N)=O [LENVATINIB] | > 30 µM (inactive) |

These compounds were tested against Actin-related protein 2 (Homo sapiens, UniProt P61160).

| SMILES | Kd |
| --- | --- |
| CN1CCN(c2ccc3nc(-c4c(N)c5c(F)cccc5[nH]c4=O)[nH]c3c2)CC1 [DOVITINIB] | > 30 µM (inactive) |
| Cc1cc(Nc2cc(N3CCN(C)CC3)nc(/C=C/c3ccccc3)n2)n[nH]1 [ENMD-2076] | > 30 µM (inactive) |
| COCCNCc1ccc(-c2cc3nccc(Oc4ccc(NC(=S)NC(=O)Cc5ccc(F)cc5)cc4F)c3s2)nc1 [GLESATINIB] | > 30 µM (inactive) |
| CCn1c(-c2nonc2N)nc2c(C#CC(C)(C)O)ncc(OC[C@H]3CCCNC3)c21 [GSK-690693] | > 30 µM (inactive) |
| COc1cc2nccc(Oc3ccc(NC(=O)NC4CC4)c(Cl)c3)c2cc1C(N)=O [LENVATINIB] | > 30 µM (inactive) |

These compounds were tested against T3, Ribosyldihydronicotinamide dehydrogenase [quinone] (Homo sapiens, UniProt P16083).
T3 sequence (P16083 whole entry): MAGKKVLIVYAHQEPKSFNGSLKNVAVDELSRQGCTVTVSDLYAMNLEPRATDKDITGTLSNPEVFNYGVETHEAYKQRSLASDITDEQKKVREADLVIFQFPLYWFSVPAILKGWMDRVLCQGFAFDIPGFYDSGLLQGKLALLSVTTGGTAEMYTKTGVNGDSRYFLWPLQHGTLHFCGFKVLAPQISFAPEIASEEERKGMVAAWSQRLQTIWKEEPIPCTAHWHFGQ

| SMILES | Kd |
| --- | --- |
| CN1CCN(c2ccc3nc(-c4c(N)c5c(F)cccc5[nH]c4=O)[nH]c3c2)CC1 [DOVITINIB] | 3.01 µM (active) |
| Cc1cc(Nc2cc(N3CCN(C)CC3)nc(/C=C/c3ccccc3)n2)n[nH]1 [ENMD-2076] | > 30 µM (inactive) |
| COCCNCc1ccc(-c2cc3nccc(Oc4ccc(NC(=S)NC(=O)Cc5ccc(F)cc5)cc4F)c3s2)nc1 [GLESATINIB] | > 30 µM (inactive) |
| CCn1c(-c2nonc2N)nc2c(C#CC(C)(C)O)ncc(OC[C@H]3CCCNC3)c21 [GSK-690693] | > 30 µM (inactive) |
| COc1cc2nccc(Oc3ccc(NC(=O)NC4CC4)c(Cl)c3)c2cc1C(N)=O [LENVATINIB] | 1.52 µM (active) |

Each compound was assayed against cAMP-dependent protein kinase catalytic subunit gamma (Homo sapiens, UniProt P22612).
Chain of cAMP-dependent protein kinase catalytic subunit gamma (P22612 whole entry): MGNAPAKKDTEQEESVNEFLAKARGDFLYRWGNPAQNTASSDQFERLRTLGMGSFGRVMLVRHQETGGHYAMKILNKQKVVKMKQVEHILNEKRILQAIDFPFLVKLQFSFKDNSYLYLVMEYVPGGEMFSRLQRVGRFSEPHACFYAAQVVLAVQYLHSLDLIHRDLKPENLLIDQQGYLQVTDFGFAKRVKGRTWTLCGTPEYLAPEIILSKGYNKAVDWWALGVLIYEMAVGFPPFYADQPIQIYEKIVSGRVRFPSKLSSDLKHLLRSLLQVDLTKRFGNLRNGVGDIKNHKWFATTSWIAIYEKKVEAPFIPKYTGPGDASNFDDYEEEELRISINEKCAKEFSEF

| SMILES | Kd |
| --- | --- |
| CN1CCN(c2ccc3nc(-c4c(N)c5c(F)cccc5[nH]c4=O)[nH]c3c2)CC1 [DOVITINIB] | > 30 µM (inactive) |
| Cc1cc(Nc2cc(N3CCN(C)CC3)nc(/C=C/c3ccccc3)n2)n[nH]1 [ENMD-2076] | > 30 µM (inactive) |
| CCn1c(-c2nonc2N)nc2c(C#CC(C)(C)O)ncc(OC[C@H]3CCCNC3)c21 [GSK-690693] | > 30 µM (inactive) |
| COc1cc2nccc(Oc3ccc(NC(=O)NC4CC4)c(Cl)c3)c2cc1C(N)=O [LENVATINIB] | > 30 µM (inactive) |

These compounds were tested against Casein kinase II subunit alpha' (Homo sapiens, UniProt P19784).
Chain of Casein kinase II subunit alpha' (P19784 whole entry): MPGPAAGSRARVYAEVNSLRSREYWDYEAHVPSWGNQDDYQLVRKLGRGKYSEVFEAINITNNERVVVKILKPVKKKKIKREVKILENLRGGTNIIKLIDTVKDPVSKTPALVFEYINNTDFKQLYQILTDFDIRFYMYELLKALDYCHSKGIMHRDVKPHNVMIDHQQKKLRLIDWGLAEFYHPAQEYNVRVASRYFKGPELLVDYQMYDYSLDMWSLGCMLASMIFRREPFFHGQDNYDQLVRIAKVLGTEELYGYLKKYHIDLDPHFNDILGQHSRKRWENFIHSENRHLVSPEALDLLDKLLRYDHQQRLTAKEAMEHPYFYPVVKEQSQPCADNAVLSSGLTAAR

| SMILES | Kd |
| --- | --- |
| Cc1cc(Nc2cc(N3CCN(C)CC3)nc(/C=C/c3ccccc3)n2)n[nH]1 [ENMD-2076] | 4.41 µM (active) |
| COCCNCc1ccc(-c2cc3nccc(Oc4ccc(NC(=S)NC(=O)Cc5ccc(F)cc5)cc4F)c3s2)nc1 [GLESATINIB] | > 30 µM (inactive) |
| COc1cc2nccc(Oc3ccc(NC(=O)NC4CC4)c(Cl)c3)c2cc1C(N)=O [LENVATINIB] | > 30 µM (inactive) |

These compounds were tested against Serine/threonine-protein kinase 26 (Homo sapiens, UniProt Q9P289).
Chain of Serine/threonine-protein kinase 26 (Q9P289 whole entry): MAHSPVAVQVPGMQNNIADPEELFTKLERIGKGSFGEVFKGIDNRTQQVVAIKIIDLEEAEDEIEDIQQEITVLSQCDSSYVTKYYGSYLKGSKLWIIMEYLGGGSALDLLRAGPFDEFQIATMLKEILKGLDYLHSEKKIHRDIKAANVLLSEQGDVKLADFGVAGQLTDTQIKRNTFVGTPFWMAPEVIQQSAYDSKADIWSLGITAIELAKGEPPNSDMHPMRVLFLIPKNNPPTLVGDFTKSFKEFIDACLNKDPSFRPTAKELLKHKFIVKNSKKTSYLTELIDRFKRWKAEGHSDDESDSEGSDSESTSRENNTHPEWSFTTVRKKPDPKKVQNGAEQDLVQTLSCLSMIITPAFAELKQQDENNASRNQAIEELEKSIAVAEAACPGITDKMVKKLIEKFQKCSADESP

| SMILES | Kd |
| --- | --- |
| COCCNCc1ccc(-c2cc3nccc(Oc4ccc(NC(=S)NC(=O)Cc5ccc(F)cc5)cc4F)c3s2)nc1 [GLESATINIB] | > 30 µM (inactive) |

These compounds were tested against T4, Structural maintenance of chromosomes protein 1A (Homo sapiens, UniProt Q14683).
T4 sequence (Q14683 whole entry): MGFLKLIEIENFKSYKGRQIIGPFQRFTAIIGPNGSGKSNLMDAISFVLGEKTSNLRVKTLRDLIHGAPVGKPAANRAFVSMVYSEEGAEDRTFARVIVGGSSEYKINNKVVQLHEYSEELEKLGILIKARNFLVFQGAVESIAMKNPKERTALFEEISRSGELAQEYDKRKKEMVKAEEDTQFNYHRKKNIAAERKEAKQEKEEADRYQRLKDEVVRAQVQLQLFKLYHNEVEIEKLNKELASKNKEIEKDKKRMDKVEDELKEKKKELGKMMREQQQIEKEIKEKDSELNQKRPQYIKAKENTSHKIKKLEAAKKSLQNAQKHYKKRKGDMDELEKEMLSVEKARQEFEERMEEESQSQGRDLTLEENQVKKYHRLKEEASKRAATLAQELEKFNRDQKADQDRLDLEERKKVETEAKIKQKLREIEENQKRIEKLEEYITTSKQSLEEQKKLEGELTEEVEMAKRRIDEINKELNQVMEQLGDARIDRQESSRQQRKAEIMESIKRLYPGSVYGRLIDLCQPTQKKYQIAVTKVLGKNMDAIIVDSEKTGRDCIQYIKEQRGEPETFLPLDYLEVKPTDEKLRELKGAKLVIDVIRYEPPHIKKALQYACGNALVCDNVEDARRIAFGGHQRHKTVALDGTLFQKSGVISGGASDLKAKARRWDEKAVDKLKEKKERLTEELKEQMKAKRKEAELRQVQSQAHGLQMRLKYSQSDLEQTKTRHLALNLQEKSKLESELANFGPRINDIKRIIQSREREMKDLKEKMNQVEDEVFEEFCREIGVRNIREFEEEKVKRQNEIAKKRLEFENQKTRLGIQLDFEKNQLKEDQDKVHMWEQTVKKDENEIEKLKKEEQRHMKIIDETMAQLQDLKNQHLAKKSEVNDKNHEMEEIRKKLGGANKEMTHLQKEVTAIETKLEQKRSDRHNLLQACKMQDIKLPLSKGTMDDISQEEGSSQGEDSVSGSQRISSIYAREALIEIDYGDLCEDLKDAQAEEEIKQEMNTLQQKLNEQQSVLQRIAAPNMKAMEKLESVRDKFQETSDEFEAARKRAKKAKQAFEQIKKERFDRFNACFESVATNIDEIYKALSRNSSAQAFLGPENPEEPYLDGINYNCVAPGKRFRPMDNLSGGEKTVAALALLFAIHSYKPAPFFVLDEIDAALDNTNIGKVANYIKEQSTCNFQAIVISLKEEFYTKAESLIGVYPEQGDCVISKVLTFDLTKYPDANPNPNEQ

| SMILES | Kd |
| --- | --- |
| CN1CCN(c2ccc3nc(-c4c(N)c5c(F)cccc5[nH]c4=O)[nH]c3c2)CC1 [DOVITINIB] | > 30 µM (inactive) |
| Cc1cc(Nc2cc(N3CCN(C)CC3)nc(/C=C/c3ccccc3)n2)n[nH]1 [ENMD-2076] | > 30 µM (inactive) |
| COCCNCc1ccc(-c2cc3nccc(Oc4ccc(NC(=S)NC(=O)Cc5ccc(F)cc5)cc4F)c3s2)nc1 [GLESATINIB] | > 30 µM (inactive) |
| CCn1c(-c2nonc2N)nc2c(C#CC(C)(C)O)ncc(OC[C@H]3CCCNC3)c21 [GSK-690693] | > 30 µM (inactive) |
| COc1cc2nccc(Oc3ccc(NC(=O)NC4CC4)c(Cl)c3)c2cc1C(N)=O [LENVATINIB] | > 30 µM (inactive) |

Each compound was assayed against Serine/threonine-protein kinase/endoribonuclease IRE1 (Homo sapiens, UniProt O75460).
Chain of Serine/threonine-protein kinase/endoribonuclease IRE1 (O75460 whole entry): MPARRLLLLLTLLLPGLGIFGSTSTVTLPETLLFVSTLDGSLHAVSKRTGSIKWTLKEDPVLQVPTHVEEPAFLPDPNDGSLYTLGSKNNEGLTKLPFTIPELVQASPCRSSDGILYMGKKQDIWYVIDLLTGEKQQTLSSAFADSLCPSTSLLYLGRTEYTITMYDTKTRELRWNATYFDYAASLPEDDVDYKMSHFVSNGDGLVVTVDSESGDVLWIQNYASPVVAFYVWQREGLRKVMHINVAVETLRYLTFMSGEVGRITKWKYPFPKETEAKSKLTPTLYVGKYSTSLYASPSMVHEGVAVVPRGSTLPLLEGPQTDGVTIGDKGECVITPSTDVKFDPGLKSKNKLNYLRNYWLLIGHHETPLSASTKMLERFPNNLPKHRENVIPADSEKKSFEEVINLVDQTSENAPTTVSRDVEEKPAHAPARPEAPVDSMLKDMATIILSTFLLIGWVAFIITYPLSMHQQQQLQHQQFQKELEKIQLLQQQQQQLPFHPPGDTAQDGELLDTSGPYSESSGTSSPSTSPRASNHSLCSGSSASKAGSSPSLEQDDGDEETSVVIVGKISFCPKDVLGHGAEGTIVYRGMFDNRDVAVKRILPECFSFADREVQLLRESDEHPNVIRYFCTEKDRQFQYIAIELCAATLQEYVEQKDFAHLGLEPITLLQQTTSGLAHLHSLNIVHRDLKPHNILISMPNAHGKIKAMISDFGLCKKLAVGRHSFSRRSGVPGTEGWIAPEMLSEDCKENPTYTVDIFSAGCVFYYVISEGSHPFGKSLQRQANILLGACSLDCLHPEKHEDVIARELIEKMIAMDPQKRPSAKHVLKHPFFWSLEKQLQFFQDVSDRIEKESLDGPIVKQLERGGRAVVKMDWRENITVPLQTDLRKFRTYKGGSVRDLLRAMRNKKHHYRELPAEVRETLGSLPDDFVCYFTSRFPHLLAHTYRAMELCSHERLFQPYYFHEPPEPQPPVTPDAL

| SMILES | Kd |
| --- | --- |
| Cc1cc(Nc2cc(N3CCN(C)CC3)nc(/C=C/c3ccccc3)n2)n[nH]1 [ENMD-2076] | > 30 µM (inactive) |
| COCCNCc1ccc(-c2cc3nccc(Oc4ccc(NC(=S)NC(=O)Cc5ccc(F)cc5)cc4F)c3s2)nc1 [GLESATINIB] | > 30 µM (inactive) |
| COc1cc2nccc(Oc3ccc(NC(=O)NC4CC4)c(Cl)c3)c2cc1C(N)=O [LENVATINIB] | 2.24 µM |
